Data taken from patent US20240108684A1, “DOSING REGIMENS FOR TREATMENT OF FUNGAL INFECTIONS” (priority 2016, published 2024).
In brackets after ≈: the same amount, converted by molar mass. Read-outs that look alike come from different tables or passages of the source. *1 amine or outer side, *2 acyl side, *3 side chain or, on linkers, in order; H or OH if unused. Where a SMILES comes first, the peptide text is derived from it. Bridges are numbered along the chain shown (N, C = ends). [ ]: non-standard residue; d: D form. The star is where a group is joined. hTyr(3S-OH,4S-OH,3'-OSO3H) = N[C@H](C(=O)O)[C@H](O)[C@@H](O)c1ccc(O)c(OS(=O)(=O)O)c1; Orn(4R-OH,5R-OH) = O=C([C@H](C[C@@H](O)[C@@H](O)N[*:3])N[*:1])[*:2]; Pro(3S-OH,4S-Me) = C[C@H]1CN[C@H](C(=O)O)[C@H]1O; X1 = CCCCCOc1ccc(-c2cc(-c3ccc(C(=O)*)cc3)no2)cc1; Gln(3R-OH) = NC(=O)C[C@@H](O)[C@H](N)C(=O)O; Hyp = O=C(O)[C@@H]1C[C@@H](O)CN1

Experiments:
[1] = test system: azole-resistant C. albicans R357 strain; test: MIC and CLSI susceptibility, azole-resistant C. albicans R357; assay type: cell-based, Candida albicans; conditions: for Susceptibility of strain R357 in words: C. albicans R357 isolated from human blood
C. albicans (R357) = test: Disseminated infection model with C. albicans R357, kidney fungal counts; assay type: in vivo, ICR mice
[2] = test system: Aspergillus fumigatus (ATCC 13073); test: Neutropenic mouse model of aspergillosis, survival; assay type: in vivo, mice; conditions: 2 mg/kg IP one dose; 10 days; P<0.05
C. auris isolates = test: Candida auris antifungal susceptibility testing (AFST), CLSI M27-A3; assay type: cell-based
[3] = Solubility of test articles in vehicle, visual observation; conditions: WFI; 2 mg/mL
Protocol: Amphotericin B and fluconazole were in powder form. Amphotericin B was dissolved in 0.9% NaCl. Fluconazole was dissolved in water (WFI: water for injection).

Row | Compound | Susceptibility (CLSI) ([1]; C. albicans R357) | Susceptibility of strain R357 in words [1] | Number of resistant C. auris isolates (C. auris isolates; of 38 isolates) | MIC ([1]; Candida albicans) | also measured
1 | C[C@@H]1[C@H](O)[C@@H](C)/C=C/C=C/C=C/C=C/C=C/C=C/C=C/[C@H](O[C@@H]2O[C@H](C)[C@@H](O)[C@H](N)[C@@H]2O)C[C@@H]2O[C@](O)(C[C@@H](O)C[C@@H](O)[C@H](O)CC[C@@H](O)C[C@@H](O)CC(=O)O[C@H]1C)C[C@H](O)[C@H]2C(=O)O [Amphotericin B, amphotericin B] | S | susceptible |  |  | MIC ([1]; C. albicans R357, endpoint 100% inhibition): 0.5 µg/mL (≈ 0.541 µM); Reduction in fungal counts (C. albicans (R357); 3 mg/kg IV, 72 hr): two log reduction; Antimicrobial effect versus vehicle (kidney fungal counts) (C. albicans (R357); 1 and 3 mg/kg IV once, 48 and 72 hr after infection): Significant effects; Survival versus vehicle [2]: significantly longer survival than vehicle
2 | CC[C@H](C)C[C@H](C)CCCCCCCCC(=O)N[C@H]1C[C@@H](O)[C@@H](NCCN)NC(=O)[C@@H]2[C@@H](O)CCN2C(=O)[C@H]([C@H](O)CCN)NC(=O)[C@H]([C@H](O)[C@@H](O)c2ccc(O)cc2)NC(=O)[C@@H]2C[C@@H](O)CN2C(=O)[C@H]([C@@H](C)O)NC1=O [Caspofungin, caspofungin] | S |  | 4 |  | MIC ([1]; Candida albicans, C. albicans R357, endpoint 50% inhibition, read-out: MIC): 0.25 µg/mL (≈ 0.229 µM); Breakthrough at 48 h (C. auris isolates; C. auris strains): most strains breakthrough
3 | OC(Cn1cncn1)(Cn1cncn1)c1ccc(F)cc1F [Fluconazole, fluconazole] | R | resistant | 38 | > 64 µg/mL | Reduction in colony counts compared to vehicle (C. albicans (R357); 20 mg/kg PO, 48 hr after infection): 51%; Reduction in colony counts compared to vehicle (C. albicans (R357); 20 mg/kg PO, 72 hr after infection): 84%; Statistical significance of reduction versus vehicle (C. albicans (R357); 20 mg/kg PO, one-way ANOVA, Dunnett's test (P>0.05)): not significant; Solubility [3]: S
4 | CCCCCOc1ccc(-c2cc(-c3ccc(C(=O)N[C@H]4C[C@@H](O)[C@@H](O)NC(=O)[C@@H]5[C@@H](O)[C@@H](C)CN5C(=O)[C@H]([C@H](O)CC(N)=O)NC(=O)[C@H]([C@H](O)[C@@H](O)c5ccc(O)c(OS(=O)(=O)O)c5)NC(=O)[C@@H]5C[C@@H](O)CN5C(=O)[C@H]([C@@H](C)O)NC4=O)cc3)no2)cc1 [MICA, micafungin] (X1-[Orn(4R-OH,5R-OH)]T[Hyp][hTyr(3S-OH,4S-OH,3'-OSO3H)][Gln(3R-OH)][Pro(3S-OH,4S-Me)]; lactam 1-C) |  |  |  |  | Number of resistant C. auris isolates (C. auris isolates): 4
5 | CC[C@@H]([C@H](C)O)n1ncn(-c2ccc(N3CCN(c4ccc(OC[C@@H]5CO[C@@](Cn6cncn6)(c6ccc(F)cc6F)C5)cc4)CC3)cc2)c1=O [Posaconazole, posaconazole] |  | resistant |  | > 64 µg/mL | 
6 | C[C@@H](c1ncncc1F)[C@](O)(Cn1cncn1)c1ccc(F)cc1F [Voriconazole, voriconazole] | R | resistant |  | > 64 µg/mL | 
